Test results as given in PubChem BioAssay AID1963961 (Molecular Pharmacology Branch, DTP, NCI, 2024).

Tested on: K98450-129-R-PDC multicell spheroids, viability
Experiment: Anticancer human tumor K98450-129-R-PDC patient-derived colon adenocarcinoma cell line growth inhibition [PI3K]
Conditions: for IC50: curve of first compound; for viability, T/C: stronger effect = lower value; active = viability on the fitted dose curve at most 10% of control; inactive = the rest
Method in brief: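 Tumor cells grown as multi-cell spheroids with HUVEC endothelial cells and MSC fibroblast-like stroma were treated with targeted agents combined with inavolisib, alpelisib, duvelisib or copanlisib. Doses fell in half-log steps from near clinical Cmax, else from 10 microM. Viability was measured.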

[1] = second compound 0.0316 µM, first compound 0.0316 µM
[2] = second compound 0.0316 µM, first compound 0.1 µM
[3] = second compound 0.0316 µM, first compound 0.316 µM
[4] = second compound 0.0316 µM, first compound 1 µM
[5] = second compound 0.0316 µM, first compound 3.16 µM
[6] = second compound 0.0316 µM, first compound 10 µM
[7] = second compound 0.1 µM, first compound 0.0316 µM
[8] = second compound 0.1 µM, first compound 0.1 µM
[9] = second compound 0.1 µM, first compound 0.316 µM
[10] = second compound 0.1 µM, first compound 1 µM
[11] = second compound 0.1 µM, first compound 3.16 µM
[12] = second compound 0.1 µM, first compound 10 µM
[13] = second compound 0.316 µM, first compound 0.0316 µM
[14] = second compound 0.316 µM, first compound 0.1 µM
[15] = second compound 0.316 µM, first compound 0.316 µM
[16] = second compound 0.316 µM, first compound 1 µM
[17] = second compound 0.316 µM, first compound 3.16 µM
[18] = second compound 0.316 µM, first compound 10 µM
[19] = second compound 1 µM, first compound 0.0316 µM
[20] = second compound 1 µM, first compound 0.1 µM
[21] = second compound 1 µM, first compound 0.316 µM
[22] = second compound 1 µM, first compound 1 µM
[23] = second compound 1 µM, first compound 3.16 µM
[24] = second compound 1 µM, first compound 10 µM
[25] = second compound 0.00316 µM, first compound 0.0316 µM
[26] = second compound 0.00316 µM, first compound 0.1 µM
[27] = second compound 0.01 µM, first compound 0.0316 µM
[28] = second compound 0.01 µM, first compound 0.1 µM
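Also: spheroids exposed to agents for seven days before read-out.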

CC1(C)CCC(CN2CCN(c3ccc(C(=O)NS(=O)(=O)c4ccc(NCC5CCOCC5)c([N+](=O)[O-])c4)c(Oc4cnc5[nH]ccc5c4)c3)CC2)=C(c2ccc(Cl)cc2)C1 + Cc1nc(NC(=O)N2CCCC2C(N)=O)sc1-c1ccnc(C(C)(C)C(F)(F)F)c1
5.71 µM: IC50 (second compound 0.1 µM)
active: viability, T/C [12] 9.67% | viability, T/C [24] 5.86% | viability, T/C (second compound 3.16 µM, first compound 10 µM) 5.29% | viability, T/C (second compound 10 µM, first compound 10 µM) 5.54%
5.16 µM: IC50 (second compound 3.16 µM)
inactive: viability, T/C [1] 105% | viability, T/C [2] 101% | viability, T/C [3] 106% | viability, T/C [4] 100% | viability, T/C [5] 98.3% | viability, T/C [6] 12.2% | viability, T/C [7] 104% | viability, T/C [8] 96.9% | viability, T/C [9] 104% | viability, T/C [10] 95% | viability, T/C [11] 92.5% | viability, T/C [13] 99.5% | viability, T/C [14] 95.5% | viability, T/C [15] 98.6% | viability, T/C [16] 92.4% | viability, T/C [17] 93.5% | viability, T/C [18] 10.5% | viability, T/C [19] 88.4% | viability, T/C [20] 94.4% | viability, T/C [21] 94.9% | viability, T/C [22] 91% | viability, T/C [23] 88.4% | viability, T/C (second compound 3.16 µM, first compound 0.0316 µM) 80.6% | viability, T/C (second compound 3.16 µM, first compound 0.1 µM) 87.4% | viability, T/C (second compound 3.16 µM, first compound 0.316 µM) 86% | viability, T/C (second compound 3.16 µM, first compound 1 µM) 84.3% | viability, T/C (second compound 3.16 µM, first compound 3.16 µM) 83% | viability, T/C (second compound 10 µM, first compound 0.0316 µM) 70% | viability, T/C (second compound 10 µM, first compound 0.1 µM) 73.9% | viability, T/C (second compound 10 µM, first compound 0.316 µM) 72.9% | viability, T/C (second compound 10 µM, first compound 1 µM) 68.5% | viability, T/C (second compound 10 µM, first compound 3.16 µM) 77%
5.78 µM: IC50 (second compound 0.316 µM)
5.4 µM: IC50 (second compound 1 µM)
6.03 µM: IC50 (second compound 0.0316 µM)
4.66 µM: IC50 (second compound 10 µM)

CC(C)n1nc(-c2ccc3oc(N)nc3c2)c2c(N)ncnc21 + COc1c(OCCCN2CCOCC2)ccc2c3n(c(=NC(=O)c4cnc(N)nc4)nc12)CCN3
inactive: viability, T/C (second compound 0.00316 µM, first compound 0.000316 µM) 107% | viability, T/C (second compound 0.00316 µM, first compound 0.001 µM) 97.4% | viability, T/C (second compound 0.00316 µM, first compound 0.00316 µM) 107% | viability, T/C (second compound 0.00316 µM, first compound 0.01 µM) 83.6% | viability, T/C [25] 94.1% | viability, T/C [26] 72.2% | viability, T/C (second compound 0.01 µM, first compound 0.000316 µM) 114% | viability, T/C (second compound 0.01 µM, first compound 0.001 µM) 86.4% | viability, T/C (second compound 0.01 µM, first compound 0.00316 µM) 96% | viability, T/C (second compound 0.01 µM, first compound 0.01 µM) 92.2% | viability, T/C [27] 94.9% | viability, T/C [28] 69% | viability, T/C (second compound 0.0316 µM, first compound 0.000316 µM) 116% | viability, T/C (second compound 0.0316 µM, first compound 0.001 µM) 86% | viability, T/C (second compound 0.0316 µM, first compound 0.00316 µM) 85.2% | viability, T/C (second compound 0.0316 µM, first compound 0.01 µM) 67.9% | viability, T/C [1] 74% | viability, T/C [2] 56.9% | viability, T/C (second compound 0.1 µM, first compound 0.000316 µM) 76.6% | viability, T/C (second compound 0.1 µM, first compound 0.001 µM) 93% | viability, T/C (second compound 0.1 µM, first compound 0.00316 µM) 81.7% | viability, T/C (second compound 0.1 µM, first compound 0.01 µM) 78.7% | viability, T/C [7] 67.1% | viability, T/C [8] 55.5% | viability, T/C (second compound 0.316 µM, first compound 0.000316 µM) 58.1% | viability, T/C (second compound 0.316 µM, first compound 0.001 µM) 60.9% | viability, T/C (second compound 0.316 µM, first compound 0.00316 µM) 66.1% | viability, T/C (second compound 0.316 µM, first compound 0.01 µM) 70.4% | viability, T/C [13] 73.1% | viability, T/C [14] 47.7% | viability, T/C (second compound 1 µM, first compound 0.000316 µM) 53% | viability, T/C (second compound 1 µM, first compound 0.001 µM) 59.4% | viability, T/C (second compound 1 µM, first compound 0.00316 µM) 58.5% | viability, T/C (second compound 1 µM, first compound 0.01 µM) 69.8% | viability, T/C [19] 54.8% | viability, T/C [20] 35.2%
0.0507 µM: IC50 (second compound 1 µM)
> 0.1 µM: IC50 (second compound 0.00316 µM) | IC50 (second compound 0.01 µM) | IC50 (second compound 0.0316 µM) | IC50 (second compound 0.1 µM) | IC50 (second compound 0.316 µM)

C[C@@H](NC(=O)c1ncnc(N)c1Cl)c1ncc(C(=O)Nc2cc(C(F)(F)F)c(Cl)cn2)s1 + COc1c(OCCCN2CCOCC2)ccc2c3n(c(=NC(=O)c4cnc(N)nc4)nc12)CCN3
inactive: viability, T/C [25] 119% | viability, T/C [26] 119% | viability, T/C (second compound 0.00316 µM, first compound 0.316 µM) 108% | viability, T/C (second compound 0.00316 µM, first compound 1 µM) 117% | viability, T/C (second compound 0.00316 µM, first compound 3.16 µM) 133% | viability, T/C (second compound 0.00316 µM, first compound 10 µM) 95% | viability, T/C [27] 108% | viability, T/C [28] 93.7% | viability, T/C (second compound 0.01 µM, first compound 0.316 µM) 115% | viability, T/C (second compound 0.01 µM, first compound 1 µM) 108% | viability, T/C (second compound 0.01 µM, first compound 3.16 µM) 105% | viability, T/C (second compound 0.01 µM, first compound 10 µM) 95.9% | viability, T/C [1] 83.5% | viability, T/C [2] 96% | viability, T/C [3] 97.4% | viability, T/C [4] 93% | viability, T/C [5] 109% | viability, T/C [6] 78.7% | viability, T/C [7] 76% | viability, T/C [8] 87% | viability, T/C [9] 98.4% | viability, T/C [10] 90.3% | viability, T/C [11] 101% | viability, T/C [12] 70.9% | viability, T/C [13] 54.8% | viability, T/C [14] 71.6% | viability, T/C [15] 65.2% | viability, T/C [16] 69.2% | viability, T/C [17] 68.2% | viability, T/C [18] 51.1% | viability, T/C [19] 58.3% | viability, T/C [20] 55% | viability, T/C [21] 51.1% | viability, T/C [22] 62.1% | viability, T/C [23] 59.6% | viability, T/C [24] 37.1%
4.39 µM: IC50 (second compound 1 µM)
> 10 µM: IC50 (second compound 0.00316 µM) | IC50 (second compound 0.01 µM) | IC50 (second compound 0.0316 µM) | IC50 (second compound 0.1 µM) | IC50 (second compound 0.316 µM)
